Results from the NIST ThermoML archive (doi:10.1016/j.jct.2017.03.026).
Where “and” joins values, the source holds several entries; their conditions need not be identical. Equal entries are not always repeated.

Test: molar heat capacity at constant pressure
Conditions: 101.33 kPa, Crystal, Small (less than 1 g) adiabatic calorimetry

O.O.O.O.O.O=S(=O)([O-])[O-].[Cu+2] [copper(II) sulfate pentahydrate]
Conditions	molar heat capacity at constant pressure
4.261 K	0.5156 J/K/mol
4.305 K	0.5483 J/K/mol
4.311 K	0.5046 J/K/mol
4.335 K	0.5159 J/K/mol
4.395 K	0.5368 J/K/mol
4.524 K	0.5196 J/K/mol
4.539 K	0.5173 J/K/mol
4.569 K	0.4829 J/K/mol
4.583 K	0.5241 J/K/mol
4.777 K	0.4969 J/K/mol
4.798 K	0.4984 J/K/mol
4.823 K	0.4929 J/K/mol
4.824 K	0.4432 J/K/mol
4.978 K	0.5029 J/K/mol
5 K	0.4962 J/K/mol
5.069 K	0.4964 J/K/mol
5.082 K	0.4427 J/K/mol
5.104 K	0.4944 J/K/mol
5.177 K	0.4896 J/K/mol
5.342 K	0.4946 J/K/mol
5.372 K	0.4889 J/K/mol
5.378 K	0.4929 J/K/mol
5.56 K	0.4939 J/K/mol
5.621 K	0.4969 J/K/mol
5.651 K	0.4969 J/K/mol
5.749 K	0.4906 J/K/mol
5.9 K	0.5111 J/K/mol
5.914 K	0.4479 J/K/mol
5.925 K	0.5016 J/K/mol
5.937 K	0.4989 J/K/mol
6.172 K	0.5019 J/K/mol
6.291 K	0.5248 J/K/mol
6.303 K	0.5186 J/K/mol and 0.4587 J/K/mol
6.448 K	0.5358 J/K/mol
6.726 K	0.5553 J/K/mol
6.774 K	0.5665 J/K/mol
6.778 K	0.5585 J/K/mol
6.783 K	0.4881 J/K/mol
7.002 K	0.5855 J/K/mol
7.249 K	0.6135 J/K/mol
7.254 K	0.6117 J/K/mol
7.273 K	0.6282 J/K/mol
7.547 K	0.6634 J/K/mol
7.713 K	0.7001 J/K/mol
7.723 K	0.6939 J/K/mol
7.725 K	0.6355 J/K/mol
7.824 K	0.7166 J/K/mol
8.096 K	0.7788 J/K/mol
8.182 K	0.7853 J/K/mol
8.189 K	0.786 J/K/mol
8.19 K	0.7356 J/K/mol
8.371 K	0.8474 J/K/mol
8.632 K	0.9011 J/K/mol
8.65 K	0.9014 J/K/mol and 0.8412 J/K/mol
8.653 K	0.8934 J/K/mol
8.928 K	0.968 J/K/mol
9.09 K	1.043 J/K/mol
9.107 K	0.9518 J/K/mol
9.116 K	1.028 J/K/mol
9.204 K	1.057 J/K/mol
9.48 K	1.134 J/K/mol
9.555 K	1.149 J/K/mol
9.563 K	1.103 J/K/mol
9.583 K	1.165 J/K/mol
9.756 K	1.2 J/K/mol
10 K	1.299 J/K/mol
10.02 K	1.297 J/K/mol and 1.25 J/K/mol
10.03 K	1.306 J/K/mol
10.05 K	1.315 J/K/mol
10.4 K	1.456 J/K/mol
10.7 K	1.569 J/K/mol
10.71 K	1.536 J/K/mol
10.77 K	1.6 J/K/mol
10.86 K	1.634 J/K/mol
11.32 K	1.835 J/K/mol
11.62 K	1.99 J/K/mol
11.63 K	1.944 J/K/mol
11.7 K	2.014 J/K/mol
11.78 K	2.059 J/K/mol
12.24 K	2.283 J/K/mol
12.54 K	2.453 J/K/mol
12.55 K	2.432 J/K/mol
12.62 K	2.5 J/K/mol
12.7 K	2.533 J/K/mol
13.16 K	2.801 J/K/mol
13.47 K	3.01 J/K/mol and 3.006 J/K/mol
13.55 K	3.048 J/K/mol
13.62 K	3.099 J/K/mol
14.09 K	3.404 J/K/mol
14.24 K	3.51 J/K/mol
14.39 K	3.63 J/K/mol
14.4 K	3.652 J/K/mol
14.48 K	3.676 J/K/mol
14.55 K	3.735 J/K/mol
15 K	4.062 J/K/mol
15.33 K	4.33 J/K/mol and 4.316 J/K/mol and 4.374 J/K/mol
16.27 K	5.102 J/K/mol and 5.148 J/K/mol
16.34 K	5.147 J/K/mol
17.21 K	5.92 J/K/mol
17.22 K	5.985 J/K/mol
17.34 K	6.038 J/K/mol
18.16 K	6.788 J/K/mol
18.17 K	6.865 J/K/mol
18.34 K	6.974 J/K/mol
19.12 K	7.738 J/K/mol and 7.803 J/K/mol
19.34 K	7.95 J/K/mol
20 K	8.662 J/K/mol
20.07 K	8.711 J/K/mol
20.08 K	8.781 J/K/mol
20.34 K	8.968 J/K/mol
21.52 K	10.37 J/K/mol and 10.5 J/K/mol
21.84 K	10.73 J/K/mol
22.86 K	11.97 J/K/mol
23.43 K	12.81 J/K/mol
23.44 K	12.67 J/K/mol
23.8 K	13.12 J/K/mol
23.86 K	13.21 J/K/mol
24.84 K	14.42 J/K/mol
25 K	14.64 J/K/mol
25.35 K	15.41 J/K/mol
25.49 K	15.25 J/K/mol
25.75 K	15.84 J/K/mol
25.81 K	15.7 J/K/mol
26.5 K	16.59 J/K/mol
26.79 K	16.97 J/K/mol
27.28 K	18.19 J/K/mol
27.48 K	17.9 J/K/mol
27.72 K	18.24 J/K/mol
27.77 K	18.33 J/K/mol
28.45 K	19.31 J/K/mol
28.75 K	19.73 J/K/mol
29.23 K	20.9 J/K/mol
29.43 K	20.68 J/K/mol
29.7 K	21.26 J/K/mol
29.73 K	21.15 J/K/mol
30 K	21.51 J/K/mol
30.41 K	22.11 J/K/mol
30.7 K	22.53 J/K/mol
31.22 K	23.13 J/K/mol
31.39 K	23.59 J/K/mol
31.68 K	24.03 J/K/mol and 23.15 J/K/mol
32.37 K	25.14 J/K/mol
32.66 K	25.56 J/K/mol
33.19 K	26.4 J/K/mol
33.35 K	26.55 J/K/mol
33.65 K	27.01 J/K/mol
33.66 K	26.86 J/K/mol
34.34 K	28.1 J/K/mol
34.62 K	28.57 J/K/mol
35 K	29.13 J/K/mol
35.15 K	29.64 J/K/mol
35.31 K	29.65 J/K/mol
35.61 K	30.07 J/K/mol
35.64 K	30.19 J/K/mol
36.17 K	31.27 J/K/mol
36.26 K	31.26 J/K/mol
36.29 K	31.18 J/K/mol
36.59 K	31.76 J/K/mol
37.11 K	32.81 J/K/mol
37.27 K	32.75 J/K/mol
37.57 K	33.3 J/K/mol
37.61 K	33.52 J/K/mol
38.25 K	34.37 J/K/mol
38.34 K	34.7 J/K/mol
38.38 K	34.84 J/K/mol
38.55 K	34.93 J/K/mol
39.23 K	35.95 J/K/mol
39.54 K	36.51 J/K/mol
40 K	37.15 J/K/mol
40.22 K	37.51 J/K/mol
40.31 K	37.77 J/K/mol
40.35 K	37.93 J/K/mol
41.2 K	39.02 J/K/mol
42.19 K	40.35 J/K/mol
42.29 K	40.63 J/K/mol
42.32 K	41.04 J/K/mol
43.17 K	41.93 J/K/mol
44.16 K	43.29 J/K/mol
44.27 K	43.38 J/K/mol
44.29 K	44.04 J/K/mol
45 K	44.39 J/K/mol
45.14 K	44.61 J/K/mol
46.12 K	45.87 J/K/mol
46.25 K	46.08 J/K/mol
46.27 K	47.03 J/K/mol
47.11 K	47.24 J/K/mol
48.1 K	48.62 J/K/mol
48.23 K	48.95 J/K/mol
48.24 K	49.93 J/K/mol
49.08 K	50.18 J/K/mol
50 K	51.93 J/K/mol
50.07 K	52.01 J/K/mol
50.21 K	52.31 J/K/mol
50.22 K	52.88 J/K/mol
51.06 K	53.89 J/K/mol
52.04 K	55.62 J/K/mol
52.19 K	55.66 J/K/mol and 55.74 J/K/mol
53.03 K	57.23 J/K/mol
54.02 K	58.82 J/K/mol
54.17 K	58.74 J/K/mol
54.18 K	58.73 J/K/mol
55 K	60.26 J/K/mol and 60.19 J/K/mol
55.99 K	61.63 J/K/mol
56.15 K	61.82 J/K/mol
56.16 K	61.65 J/K/mol
56.98 K	62.69 J/K/mol
57.97 K	63.82 J/K/mol
58.14 K	64.89 J/K/mol
58.15 K	64.47 J/K/mol
58.96 K	65.23 J/K/mol
59.95 K	66.92 J/K/mol
60 K	66.98 J/K/mol
60.12 K	67.94 J/K/mol
60.14 K	67.3 J/K/mol
60.93 K	68.42 J/K/mol
61.92 K	69.94 J/K/mol
62.11 K	70.89 J/K/mol
62.13 K	70.09 J/K/mol
62.92 K	71.4 J/K/mol
63.91 K	72.71 J/K/mol
64.1 K	73.66 J/K/mol
64.13 K	72.85 J/K/mol
64.9 K	74 J/K/mol
65 K	74.12 J/K/mol
65.89 K	75.34 J/K/mol
66.1 K	76.33 J/K/mol
66.12 K	75.65 J/K/mol
66.89 K	76.71 J/K/mol
67.88 K	78.07 J/K/mol
68.09 K	78.22 J/K/mol and 78.9 J/K/mol
68.88 K	79.31 J/K/mol
69.87 K	80.54 J/K/mol
70 K	80.85 J/K/mol and 80.84 J/K/mol
70.08 K	81.47 J/K/mol
71.87 K	83.38 J/K/mol
72.45 K	84.21 J/K/mol
72.58 K	84.91 J/K/mol
74.88 K	87.18 J/K/mol
75 K	87.24 J/K/mol
75.45 K	87.98 J/K/mol
75.59 K	88.72 J/K/mol
77.89 K	90.83 J/K/mol
77.95 K	91.36 J/K/mol
78.48 K	91.71 J/K/mol
79.11 K	92.21 J/K/mol
79.15 K	92.84 J/K/mol
79.36 K	93.03 J/K/mol
80 K	93.33 J/K/mol
80.16 K	93.95 J/K/mol
80.92 K	94.52 J/K/mol
81.18 K	95.24 J/K/mol
81.51 K	95.36 J/K/mol
82.2 K	96.42 J/K/mol
82.48 K	96.2 J/K/mol
82.91 K	97.32 J/K/mol
83.22 K	97.59 J/K/mol
84.24 K	98.9 J/K/mol
85 K	99.12 J/K/mol
85.26 K	100.17 J/K/mol
85.52 K	99.69 J/K/mol
85.95 K	100.9 J/K/mol
86.12 K	100.4 J/K/mol
86.28 K	101.27 J/K/mol
87.26 K	101.63 J/K/mol
87.3 K	102.49 J/K/mol
88.08 K	103.41 J/K/mol
88.28 K	102.83 J/K/mol
88.33 K	103.67 J/K/mol
88.57 K	103.19 J/K/mol
89 K	104.46 J/K/mol
89.31 K	103.96 J/K/mol
89.36 K	104.73 J/K/mol
89.57 K	104.25 J/K/mol
90 K	104.7 J/K/mol
90.33 K	105.21 J/K/mol
90.39 K	105.94 J/K/mol
90.76 K	106.39 J/K/mol
91.36 K	106.32 J/K/mol
91.43 K	107.16 J/K/mol
91.62 K	106.68 J/K/mol
91.84 K	106.75 J/K/mol
92.05 K	107.96 J/K/mol
92.39 K	107.49 J/K/mol
92.47 K	108.25 J/K/mol
93.36 K	109.28 J/K/mol
93.42 K	108.59 J/K/mol
93.5 K	109.47 J/K/mol
93.89 K	109.02 J/K/mol
94.46 K	109.82 J/K/mol
94.55 K	110.67 J/K/mol
94.68 K	110.09 J/K/mol
95 K	110.3 J/K/mol
95.12 K	111.38 J/K/mol
95.49 K	110.97 J/K/mol
95.59 K	111.73 J/K/mol
95.94 K	111.25 J/K/mol
95.97 K	112.11 J/K/mol
96.53 K	111.9 J/K/mol
96.63 K	112.87 J/K/mol
97.56 K	113.1 J/K/mol
97.68 K	113.95 J/K/mol
97.74 K	113.41 J/K/mol
97.98 K	113.44 J/K/mol
98.19 K	114.68 J/K/mol
98.58 K	114.96 J/K/mol
98.6 K	114.41 J/K/mol
98.72 K	115.17 J/K/mol
99.65 K	115.37 J/K/mol
99.77 K	116.31 J/K/mol
100 K	115.7 J/K/mol
100.03 K	115.65 J/K/mol
100.69 K	116.49 J/K/mol
100.81 K	117.42 J/K/mol
100.82 K	116.62 J/K/mol
101.2 K	117.71 J/K/mol
101.27 K	117.92 J/K/mol
